Structures are written as SMILES. The source made the active and inactive calls. The calls are words filed in the database; no cut-off is given here.

The target in assay [1] is Receptor-type tyrosine-protein phosphatase S (Homo sapiens, UniProt Q13332). The assay is described as follows: Inhibition of recombinant human PTPsigma expressed in Escherichia coli using p-nitrophenyl phosphate as substrate preincubated for 15 mins followed by substrate addition and measured after 60 mins.
Assay [2] addresses T1, Tyrosine-protein phosphatase non-receptor type 1 (Homo sapiens, UniProt P18031).
T1 sequence (P18031 whole entry): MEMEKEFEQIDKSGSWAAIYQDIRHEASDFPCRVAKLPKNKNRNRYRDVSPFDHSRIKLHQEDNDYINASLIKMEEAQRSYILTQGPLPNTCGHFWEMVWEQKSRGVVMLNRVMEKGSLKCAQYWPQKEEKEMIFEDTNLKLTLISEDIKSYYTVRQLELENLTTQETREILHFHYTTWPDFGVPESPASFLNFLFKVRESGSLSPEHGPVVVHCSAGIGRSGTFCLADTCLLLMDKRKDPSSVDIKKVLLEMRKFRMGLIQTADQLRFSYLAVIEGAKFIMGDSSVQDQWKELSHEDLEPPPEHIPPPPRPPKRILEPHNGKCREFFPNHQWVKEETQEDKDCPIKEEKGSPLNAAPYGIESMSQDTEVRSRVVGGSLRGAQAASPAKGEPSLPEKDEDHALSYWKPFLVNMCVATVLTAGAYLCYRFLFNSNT
Kind of assay: Inhibition of recombinant human PTP1B expressed in Escherichia coli using p-nitrophenyl phosphate as substrate preincubated for 15 mins followed by substrate addition and measured after 60 mins.

Assay [3] concerns the target Dual specificity protein phosphatase 3 (Homo sapiens) (UniProt P51452). Kind of assay: Inhibition of recombinant human VHR expressed in Escherichia coli using p-nitrophenyl phosphate as substrate preincubated for 15 mins followed by substrate addition and measured after 60 mins.
The next assay concerns SGC-7901. Kind of assay: Cytotoxicity against human SGC7901 cells assessed as cell viability incubated for 48 hrs by MTT assay. The assay is classed as functional, cell-based. (In general: Tetrazolium dyes change colour on reduction, which living cells bring about.)
For a further assay, the system named is K562. Kind of assay: Cytotoxicity against human K562 cells assessed as cell viability incubated for 48 hrs by MTT assay. The assay is classed as functional, cell-based.
In the next assay the test system is A549. The assay is described as follows: Cytotoxicity against human A549 cells assessed as cell viability incubated for 48 hrs by MTT assay. The class given is functional, cell-based.
For the next assay, the system named is HeLa. Kind of assay: Cytotoxicity against human HeLa cells assessed as cell viability incubated for 48 hrs by MTT assay. The assay is classed as functional, cell-based.
For assay [4], the target named is T2, Tyrosine-protein phosphatase non-receptor type 2 (Homo sapiens, UniProt P17706).
T2 sequence (P17706 whole entry): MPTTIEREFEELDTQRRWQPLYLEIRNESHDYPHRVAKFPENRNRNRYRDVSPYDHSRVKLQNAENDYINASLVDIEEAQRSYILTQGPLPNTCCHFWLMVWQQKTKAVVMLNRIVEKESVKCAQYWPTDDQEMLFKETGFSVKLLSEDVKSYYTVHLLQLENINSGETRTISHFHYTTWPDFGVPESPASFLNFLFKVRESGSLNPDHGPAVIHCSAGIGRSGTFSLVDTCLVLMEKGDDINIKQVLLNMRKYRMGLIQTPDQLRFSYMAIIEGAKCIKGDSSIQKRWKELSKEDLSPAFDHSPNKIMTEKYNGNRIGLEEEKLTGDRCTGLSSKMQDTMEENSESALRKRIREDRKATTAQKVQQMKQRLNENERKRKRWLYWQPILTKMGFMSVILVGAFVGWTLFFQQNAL
Kind of assay: Inhibition of recombinant human TCPTP expressed in Escherichia coli using p-nitrophenyl phosphate as substrate preincubated for 15 mins followed by substrate addition and measured after 60 mins.

Chain of Dual specificity protein phosphatase 3 (Homo sapiens) (P51452 whole entry, looked up): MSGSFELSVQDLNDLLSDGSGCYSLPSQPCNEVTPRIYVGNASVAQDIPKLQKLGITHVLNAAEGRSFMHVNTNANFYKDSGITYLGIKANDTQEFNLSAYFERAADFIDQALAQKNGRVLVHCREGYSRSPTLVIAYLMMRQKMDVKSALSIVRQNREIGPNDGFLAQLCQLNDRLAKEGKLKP
Chain of Receptor-type tyrosine-protein phosphatase S (Q13332 whole entry): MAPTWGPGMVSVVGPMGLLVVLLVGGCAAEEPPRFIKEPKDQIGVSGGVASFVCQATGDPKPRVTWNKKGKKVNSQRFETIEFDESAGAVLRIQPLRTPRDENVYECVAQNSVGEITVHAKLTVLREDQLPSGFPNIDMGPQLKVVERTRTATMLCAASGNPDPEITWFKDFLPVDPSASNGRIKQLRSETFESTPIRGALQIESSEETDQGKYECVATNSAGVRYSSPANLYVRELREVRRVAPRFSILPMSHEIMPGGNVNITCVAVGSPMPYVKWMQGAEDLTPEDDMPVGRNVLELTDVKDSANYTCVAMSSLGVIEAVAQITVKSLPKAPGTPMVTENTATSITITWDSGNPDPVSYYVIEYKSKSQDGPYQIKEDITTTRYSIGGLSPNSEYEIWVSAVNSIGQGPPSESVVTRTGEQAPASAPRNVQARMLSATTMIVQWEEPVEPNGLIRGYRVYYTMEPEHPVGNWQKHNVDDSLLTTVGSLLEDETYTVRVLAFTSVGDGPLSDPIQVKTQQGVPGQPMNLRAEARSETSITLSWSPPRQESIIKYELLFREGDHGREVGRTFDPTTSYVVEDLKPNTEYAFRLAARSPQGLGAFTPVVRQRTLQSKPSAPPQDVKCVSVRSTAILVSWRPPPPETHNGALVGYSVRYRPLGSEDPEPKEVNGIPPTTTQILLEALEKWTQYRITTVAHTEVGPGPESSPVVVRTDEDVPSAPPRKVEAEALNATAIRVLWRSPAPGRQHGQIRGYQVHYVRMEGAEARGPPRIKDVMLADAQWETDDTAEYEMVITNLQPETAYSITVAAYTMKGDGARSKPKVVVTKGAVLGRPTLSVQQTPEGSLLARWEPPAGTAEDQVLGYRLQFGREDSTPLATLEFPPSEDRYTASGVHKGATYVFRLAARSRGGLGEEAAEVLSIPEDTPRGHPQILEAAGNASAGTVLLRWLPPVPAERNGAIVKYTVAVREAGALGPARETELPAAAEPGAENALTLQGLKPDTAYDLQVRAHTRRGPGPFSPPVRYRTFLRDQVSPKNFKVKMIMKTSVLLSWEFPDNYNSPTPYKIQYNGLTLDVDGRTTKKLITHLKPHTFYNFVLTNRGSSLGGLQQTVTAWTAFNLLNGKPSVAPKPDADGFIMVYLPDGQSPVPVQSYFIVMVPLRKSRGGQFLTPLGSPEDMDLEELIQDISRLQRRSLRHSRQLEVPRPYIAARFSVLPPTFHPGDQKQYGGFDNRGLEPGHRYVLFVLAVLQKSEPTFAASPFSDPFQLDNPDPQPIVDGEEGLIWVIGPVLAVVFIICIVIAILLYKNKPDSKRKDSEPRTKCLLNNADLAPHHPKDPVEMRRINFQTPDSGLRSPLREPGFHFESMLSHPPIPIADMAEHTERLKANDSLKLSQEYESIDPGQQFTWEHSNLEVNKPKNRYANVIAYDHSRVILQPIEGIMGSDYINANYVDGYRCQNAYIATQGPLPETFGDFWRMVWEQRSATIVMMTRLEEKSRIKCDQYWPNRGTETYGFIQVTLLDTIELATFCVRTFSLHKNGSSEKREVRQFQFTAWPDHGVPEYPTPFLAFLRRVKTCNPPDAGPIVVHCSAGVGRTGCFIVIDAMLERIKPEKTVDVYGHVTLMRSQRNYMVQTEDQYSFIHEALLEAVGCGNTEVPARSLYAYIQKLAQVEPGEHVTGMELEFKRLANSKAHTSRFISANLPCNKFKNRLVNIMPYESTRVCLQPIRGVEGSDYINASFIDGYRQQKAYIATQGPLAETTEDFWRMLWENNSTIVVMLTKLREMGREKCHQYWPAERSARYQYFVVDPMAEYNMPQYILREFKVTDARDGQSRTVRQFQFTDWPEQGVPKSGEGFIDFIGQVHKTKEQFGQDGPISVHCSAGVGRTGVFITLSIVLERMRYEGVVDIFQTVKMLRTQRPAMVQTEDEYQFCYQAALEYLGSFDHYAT

Usually IC50 stands for the concentration at which inhibition is half-maximal. For `CC1(C)C[C@H]2[C@@H]3C(=O)CC[C@]4(C)[C@@]5(C)c6[nH]c7ccccc7c6C[C@@H]5CC[C@@]34O[C@@]2(O)[C@@H]1O`, the figures for the IC50 in assay [1] and in assay [2] were 38 µM and 14 µM, respectively. Further, the inhibition result in assay [3] is “inactive”. For the same compound, the outcome with SGC-7901, in the assay on K562, in the assay with A549 and in the assay on HeLa was inactive.

With `CC(C)(O)[C@@H]1CC[C@]2(C=O)[C@H](CC[C@@]3(C)[C@H]2CC[C@H]2Cc4c([nH]c5ccccc45)[C@@]23C)O1`, in assay [3], the inhibition entry is “inactive”. Moreover, the result in the assay on SGC-7901, in the assay on K562, in the assay on A549 and in the assay on HeLa was inactive.

As to `CC(C)(O)[C@H]1O[C@H]2CC[C@@]3(C)[C@@](O)(CC[C@H]4C(=O)c5c([nH]c6ccccc56)[C@@]43C)C2=CC1=O`, the IC50 in assay [4] amounted to 35 µM; in assay [2], 23 µM. Besides, the inhibition result in assay [3] is “inactive”. For the same compound, the outcome with SGC-7901, in the assay on K562, in the assay on A549 and in the assay with HeLa was inactive.

Take `CC(C)(O)[C@H]1O[C@H]2CC[C@@]3(C)[C@@](O)(CC[C@@H](CC(=O)c4ccccc4N)[C@]3(C)C(=O)O)C2=CC1=O`: the inhibition entry in assay [3] was “inactive”. Also, the outcome in the assay on SGC-7901, with K562, in the assay on A549 and with HeLa was inactive.

Regarding `CC(C)(O)[C@H]1O[C@@]2(O)CC[C@@]3(C)C(=CC[C@H]4Cc5c([nH]c6ccccc56)[C@@]43C)C2=CC1=O`, the IC50 was 37 µM in assay [4] and 13 µM in assay [2]. In assay [3], the inhibition result is “inactive”. The result in the assay with SGC-7901, with K562, in the assay on A549 and in the assay with HeLa was inactive.

As to `CC(C)(O)[C@@H]1OC(=O)C=C2[C@H](CC[C@@]3(C)[C@@]2(O)CC[C@H]2Cc4c([nH]c5ccccc45)[C@@]23C)O1`, the inhibition result in assay [3] is “inactive”. For the same compound, the result in the assay on SGC-7901, with K562, with A549 and in the assay on HeLa was inactive.

As for `CC1(C)C=C2c3cc4[nH]c5c(c4cc3C[C@@H]2C(C)(C)O1)C[C@@H]1CC[C@@]2(O)C3=CC(=O)[C@@H](C(C)(C)O)O[C@@]3(O)CC[C@]2(C)[C@@]51C`, in assay [3], the inhibition result is “inactive”. Also, the outcome with SGC-7901, in the assay with K562, with A549 and in the assay on HeLa was inactive.

In the case of `CC1(C)O[C@@]23CC[C@@]4(C)[C@@](O)(CC[C@H]5Cc6c([nH]c7ccccc67)[C@@]54C)C2=CC(=O)[C@H]1O3`, the inhibition result in assay [3] is “inactive”. Besides, the outcome in the assay on SGC-7901, in the assay with K562, in the assay with A549 and in the assay on HeLa was inactive.

As to `CC1(C)CC2=C(Cc3cc4c(cc32)NC(=O)[C@@]2(C)[C@@H](CC[C@@]3(O)C5=CC(=O)[C@@H](C(C)(C)O)O[C@H]5CC[C@@]32C)CC4=O)C(C)(C)O1`, the inhibition entry in assay [3] was “inactive”. For the same compound, the outcome in the assay with SGC-7901, with K562, in the assay with A549 and in the assay on HeLa was inactive.

In the case of `C[C@]12CC[C@@H]3OCC(=O)C=C3[C@]1(O)CC[C@H]1Cc3c([nH]c4ccccc34)[C@@]12C`, in assay [2], the IC50 was found to be 27 µM. Further, the inhibition result in assay [3] was “inactive”. Also, the result in the assay on SGC-7901, in the assay with K562, with A549 and with HeLa was inactive.

As to `CC(C)(O)[C@@H]1CC=C2[C@H](CC[C@@]3(C)[C@H]2CC[C@H]2Cc4c([nH]c5ccccc45)[C@@]23C)O1`, the inhibition entry in assay [3] is “inactive”. Further, the result in the assay on SGC-7901, in the assay on K562, in the assay on A549 and in the assay with HeLa was inactive.

For the compound `CC1(C)CC2=C(Cc3cc4c5c([nH]c4cc32)[C@@]2(C)[C@@H](CC[C@@]3(O)C4=CC(=O)[C@@H](C(C)(C)O)O[C@@]4(O)CC[C@@]32C)C5)C(C)(C)O1`, in assay [3], the inhibition entry was “inactive”. The result in the assay with SGC-7901, in the assay on K562, in the assay on A549 and in the assay with HeLa was inactive.

(Values after ChEMBL document CHEMBL4414570, “Indole-Diterpenoids with Protein Tyrosine Phosphatase Inhibitory Activities from the Marine-Derived Fungus Penicillium sp. KFD28” (J Nat Prod, 2019).)
